Columns and labels:
[1] = system: foxtail, giant; assay: Test C preemergence; assay type: in vivo, Setaria faberi
Source text: (§1) Seeds of plant species selected from barnyardgrass (Echinochloa crusgalli), blackgrass (Alopecurus myosuroides), corn (Zea mays), foxtail, giant (giant foxtail, Setaria faberi), green foxtail (Setaria viridis), goosegrass (Eleusine indica), kochia (Bassia scoparia), oat, wild (wild oat, Avena fatua), pigweed, palmer (palmer amaranth, palmer pigweed, Amaranthus palmeri), Pigweed, Redroot (redroot pigweed, Amaranthus retroflexus), ragweed (common ragweed, Ambrosia artemisiifolia), ryegrass, Italian ([…] ryegrass, Lolium multiflorum), soybean (Glycine max), and wheat (Triticum aestivum) were planted into a blend of loam soil and sand and treated preemergence with a directed soil spray using test chemicals formulated in a non-phytotoxic solvent mixture which included a surfactant. At the same time, plants selected from these crops and weed species and also galium (catchweed bedstraw, Galium aparine) and horseweed (Erigeron canadensis) were planted in pots containing the same blend of loam soil and sand and treated with postemergence applications of test chemicals formulated in the same manner. Plants ranged in height from 2 to 10 cm and were in the one- to two-leaf stage for the postemergence treatment. Treated plants and untreated controls were maintained in a greenhouse for 10 days, after which time all treated plants were compared to untreated controls and visually evaluated for injury. Plant response ratings, summarized in Table C, are based on a 0 to 100 scale where 0 is no effect and 100 is complete control. A dash (-) response means no test result.

[2] = system: ragweed; assay: Test C postemergence; assay type: in vivo, Ambrosia artemisiifolia; settings: 10 days, 0 to 100 scale (0 no effect, 100 complete control)
Outline: (§2)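 Soil-applied (pre) and foliar (post, 1–2 leaf, 2–10 cm) sprays; surfactant-containing non-phytotoxic solvent vehicle; loam/sand substrate. Readout: visual % control at 10 d, greenhouse, versus untreated.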

[3] = system: rice; assay: Test D flooded paddy test; assay type: in vivo, Oryza sativa; settings: 250 g ai/ha, applied to paddy water, visual rating after 13 to 14 days, scale 0 to 100 (0 no effect, 100 complete control)
Outline: (§3)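 Plants at the 2-leaf stage were grown in pots flooded to 3 cm, and compound was applied directly into the paddy water, with depth kept throughout. After 13–14 days in a greenhouse, injury was rated visually against untreated controls on a 0–100 scale (100 = complete control); a dash means not tested.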

[4] = system: horseweed; assay: Test C postemergence; assay type: in vivo, Erigeron canadensis; settings: 10 days, 0 to 100 scale (0 no effect, 100 complete control)
Outline: as §2

[5] = system: soybean; assay: Test C postemergence; assay type: in vivo, Glycine max; settings: 10 days, 0 to 100 scale (0 no effect, 100 complete control)
Outline: as §2

[6] = system: sedge, umbrella; assay: Test D flooded paddy test; assay type: in vivo, Cyperus difformis; settings: 250 g ai/ha, applied to paddy water, visual rating after 13 to 14 days, scale 0 to 100 (0 no effect, 100 complete control)
Outline: as §3

[7] = system: pigweed, palmer; assay: Test C postemergence; assay type: in vivo, Amaranthus palmeri; settings: 10 days, 0 to 100 scale (0 no effect, 100 complete control)
Outline: as §2

[8] = system: kochia; assay: Test C preemergence; assay type: in vivo, Bassia scoparia
Outline: as §2

[9] = system: blackgrass; assay: Test C preemergence; assay type: in vivo, Alopecurus myosuroides
Outline: as §2

[10] = system: galium; assay: Test C postemergence; assay type: in vivo, Galium aparine; settings: 10 days, 0 to 100 scale (0 no effect, 100 complete control)
Outline: as §2

[11] = system: wheat; assay: Test C preemergence; assay type: in vivo, Triticum aestivum
Outline: as §2

[12] = system: barnyardgrass; assay: Test C preemergence; assay type: in vivo, Echinochloa crusgalli
Outline: as §2

[13] = system: foxtail, giant; assay: Test C postemergence; assay type: in vivo, Setaria faberi; settings: 10 days, 0 to 100 scale (0 no effect, 100 complete control)
Source text: as §1

[14] = system: ryegrass, Italian; assay: Test C preemergence; assay type: in vivo, Lolium multiflorum
Outline: as §2

[15] = system: soybean; assay: Test C preemergence; assay type: in vivo, Glycine max
Outline: as §2

[16] = system: ducksalad; assay: Test D flooded paddy test; assay type: in vivo, Heteranthera limosa; settings: 250 g ai/ha, applied to paddy water, visual rating after 13 to 14 days, scale 0 to 100 (0 no effect, 100 complete control)
Outline: as §3

[17] = system: barnyardgrass; assay: Test D flooded paddy test; assay type: in vivo, Echinochloa crus-galli; settings: 250 g ai/ha, applied to paddy water, visual rating after 13 to 14 days, scale 0 to 100 (0 no effect, 100 complete control)
Outline: as §3

[18] = system: kochia; assay: Test C postemergence; assay type: in vivo, Bassia scoparia; settings: 10 days, 0 to 100 scale (0 no effect, 100 complete control)
Outline: as §2

[19] = system: corn; assay: Test C postemergence; assay type: in vivo, Zea mays; settings: 10 days, 0 to 100 scale (0 no effect, 100 complete control)
Outline: as §2

[20] = system: wheat; assay: Test C postemergence; assay type: in vivo, Triticum aestivum; settings: 10 days, 0 to 100 scale (0 no effect, 100 complete control)
Outline: as §2

[21] = system: barnyardgrass; assay: Test C postemergence; assay type: in vivo, Echinochloa crusgalli; settings: 10 days, 0 to 100 scale (0 no effect, 100 complete control)
Outline: as §2

[22] = system: ragweed; assay: Test C preemergence; assay type: in vivo, Ambrosia artemisiifolia
Outline: as §2

[23] = system: oat, wild; assay: Test C postemergence; assay type: in vivo, Avena fatua; settings: 10 days, 0 to 100 scale (0 no effect, 100 complete control)
Outline: as §2

[24] = system: pigweed, palmer; assay: Test C preemergence; assay type: in vivo, Amaranthus palmeri
Outline: as §2

[25] = system: blackgrass; assay: Test C postemergence; assay type: in vivo, Alopecurus myosuroides; settings: 10 days, 0 to 100 scale (0 no effect, 100 complete control)
Outline: as §2

[26] = system: oat, wild; assay: Test C preemergence; assay type: in vivo, Avena fatua
Outline: as §2

[27] = system: ryegrass, Italian; assay: Test C postemergence; assay type: in vivo, Lolium multiflorum; settings: 10 days, 0 to 100 scale (0 no effect, 100 complete control)
Outline: as §2

[28] = system: corn; assay: Test C preemergence; assay type: in vivo, Zea mays
Outline: as §2

[29] = 500 g ai/ha, preemergence, 0 to 100 scale (0 no effect, 100 complete control)
[30] = Preemergence, 125 g ai/ha, 0 to 100 scale, 0 no effect, 100 complete control

## Cc1cccc2c1OC(C(F)(F)F)CN2C(=O)c1ccnc(-n2cnc(C(C)C)n2)c1 (single isomer, unassigned) [Compound 328]
[1]; [29]
  Foxtail, Giant plant response rating: 100
[1]; [30]
  Plant response rating, Foxtail, Giant: 100
[2]; 500 g ai/ha, postemergence
  Plant response rating, Ragweed: 60
[2]; Postemergence, 125 g ai/ha
  Plant response rating, Ragweed: 40
[3]
  Plant response rating, Rice (Flood): 0
[4]; 500 g ai/ha, postemergence
  Plant response rating, Horseweed: 60
[4]; Postemergence, 125 g ai/ha
  Plant response rating, Horseweed: 0
[5]; 500 g ai/ha, postemergence
  Plant response rating, Soybean: 100
[5]; Postemergence, 125 g ai/ha
  Plant response rating, Soybean: 100
[6]
  Plant response rating, Sedge, Umbrella (Flood): 85
[7]; 500 g ai/ha, postemergence
  Plant response rating, Pigweed, Palmer: 90
[7]; Postemergence, 125 g ai/ha
  Plant response rating, Pigweed, Palmer: 50
[8]; [29]
  Kochia plant response rating: 70
[8]; [30]
  Plant response rating, Kochia: 0
[9]; [29]
  Blackgrass plant response rating: 80
[9]; [30]
  Plant response rating, Blackgrass: 80
[10]; 500 g ai/ha, postemergence
  Plant response rating, Galium: 100
[10]; Postemergence, 125 g ai/ha
  Plant response rating, Galium: 80
[11]; [29]
  Wheat plant response rating: 90
[11]; [30]
  Plant response rating, Wheat: 20
[12]; [29]
  Barnyardgrass plant response rating: 100
[12]; [30]
  Plant response rating, Barnyardgrass: 90
[13]; 500 g ai/ha, postemergence
  Plant response rating, Foxtail, Giant: 90
[13]; Postemergence, 125 g ai/ha
  Plant response rating, Foxtail, Giant: 90
[14]; [29]
  Ryegrass, Italian plant response rating: 100
[14]; [30]
  Plant response rating, Ryegrass, Italian: 90
[15]; [29]
  Soybean plant response rating: 100
[15]; [30]
  Plant response rating, Soybean: 100
[16]
  Plant response rating, Ducksalad (Flood): 30
[17]
  Plant response rating, Barnyardgrass (Flood): 15
[18]; 500 g ai/ha, postemergence
  Plant response rating, Kochia: 80
[18]; Postemergence, 125 g ai/ha
  Plant response rating, Kochia: 50
[19]; 500 g ai/ha, postemergence
  Plant response rating, Corn: 70
[19]; Postemergence, 125 g ai/ha
  Plant response rating, Corn: 20
[20]; 500 g ai/ha, postemergence
  Plant response rating, Wheat: 30
[20]; Postemergence, 125 g ai/ha
  Plant response rating, Wheat: 30
[21]; 500 g ai/ha, postemergence
  Plant response rating, Barnyardgrass: 90
[21]; Postemergence, 125 g ai/ha
  Plant response rating, Barnyardgrass: 60
[22]; [29]
  Ragweed plant response rating: 50
[22]; [30]
  Plant response rating, Ragweed: 0
[23]; 500 g ai/ha, postemergence
  Plant response rating, Oat, Wild: 40
[23]; Postemergence, 125 g ai/ha
  Plant response rating, Oat, Wild: 20
[24]; [29]
  Pigweed, Palmer plant response rating: 100
[24]; [30]
  Plant response rating, Pigweed, Palmer: 40
[25]; 500 g ai/ha, postemergence
  Plant response rating, Blackgrass: 80
[25]; Postemergence, 125 g ai/ha
  Plant response rating, Blackgrass: 60
[26]; [29]
  Oat, Wild plant response rating: 90
[26]; [30]
  Plant response rating, Oat, Wild: 30
[27]; 500 g ai/ha, postemergence
  Plant response rating, Ryegrass, Italian: 90
[27]; Postemergence, 125 g ai/ha
  Plant response rating, Ryegrass, Italian: 50
[28]; [29]
  Corn plant response rating: 90
[28]; [30]
  Plant response rating, Corn: 30

From US20260262643A1, “HERBICIDAL BENZOXAZINES” (FMC CORPORATION, priority 2022, published 2026)
